From US10245261B2, “Substituted indol-5-ol derivatives and their therapeutic applications” (NantBioScience, Inc., priority 2013, dated 2019)
Where two headings read alike, the source gives them in different places.

Columns and labels:
Abl (M351T)(h) = Abl (M351T)(h) (Homo sapiens, UniProt P00519, M351T); experiment: KinaseProfiler kinase assay; type: biochemical
Aurora-A(h) = target: T1, Aurora-A(h) (Homo sapiens, UniProt O14965); experiment: KinaseProfiler kinase assay; type: biochemical; conditions: for inhibition at 1 µM: read-out: % Inhibition @1 μM Auroro-A
T1 sequence (O14965 1-403): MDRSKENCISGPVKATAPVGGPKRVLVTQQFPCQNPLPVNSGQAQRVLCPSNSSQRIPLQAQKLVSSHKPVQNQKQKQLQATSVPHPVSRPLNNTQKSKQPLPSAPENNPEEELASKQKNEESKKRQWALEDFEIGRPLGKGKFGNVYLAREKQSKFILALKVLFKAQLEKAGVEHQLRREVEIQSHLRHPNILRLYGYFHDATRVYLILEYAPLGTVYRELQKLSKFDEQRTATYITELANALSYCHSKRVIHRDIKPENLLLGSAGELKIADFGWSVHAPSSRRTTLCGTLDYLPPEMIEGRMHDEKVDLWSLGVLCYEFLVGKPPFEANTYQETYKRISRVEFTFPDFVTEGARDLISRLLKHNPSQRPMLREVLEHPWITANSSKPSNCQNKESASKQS
Summary of the method: (§1)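 Using a filter-binding 33P format, reactions initiated by MgATP addition proceeded 40 min at room temperature before a 3% phosphoric acid stop. Filtermats were washed three times in 50 mM phosphoric acid and once in methanol, dried and counted.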

Ret(h) = Ret(h) (Homo sapiens, UniProt P07949); experiment: KinaseProfiler kinase assay; type: biochemical
Summary of the method: as §1

FGFR2(h) = FGFR2(h) (Homo sapiens, UniProt P21802); experiment: KinaseProfiler kinase assay; type: biochemical
FGFR3(h) = FGFR3(h) (Homo sapiens, UniProt P22607); experiment: KinaseProfiler kinase assay; type: biochemical
Flt1(h) = Flt1(h) (Homo sapiens, UniProt P17948); experiment: KinaseProfiler kinase assay; type: biochemical
AN3.CA = experiment: CellTiterBlue cell growth inhibition; type: cell-based; conditions: Homo sapiens, 72 hours
KU812 = experiment: CellTiterBlue cell growth inhibition; type: cell-based; conditions: Homo sapiens; KU812, 72 hours
Kato III = experiment: CellTiterBlue cell growth inhibition; type: cell-based; conditions: Homo sapiens, 72 hours
RS4.11 = experiment: CellTiterBlue cell growth inhibition; type: cell-based; conditions: Homo sapiens; RS4.11, 72 hours
TT = experiment: CellTiterBlue cell growth inhibition; type: cell-based; conditions: Homo sapiens, 72 hours
[1] = test system: human MV411 human acute myelogenous leukemia (AML) xenograft; experiment: AML xenograft model in female SCID mice; type: in vivo, mouse
Protocol: The objective of the first study was to evaluate antitumor activities of the novel multiple-kinase inhibitor NTW-3475 against human MV411 human acute myelogenous leukemia (AML) xenograft model in female SCID mice.
Four or six animals were randomly assigned to each study group. Each animal was injected subcutaneously in the left and right flank area with 0.1 ml of 1.0×10^8 MV411 cells per mL.
(§2) Each test or control animal was placed on a 5-day on, two-day off for two cycles of vehicle negative control or 25, 50 mg/kg of NTW-3475. Tumor growth was measured with a digital hand held caliper twice weekly (once tumor emerges) prior to the first dosing and then two to three times weekly until euthanized. Animals were weighed prior to tumor cell injection, prior to dosing, two to three times weekly with tumor growth measurements, and prior to euthanasia.
The objective of the first study was to evaluate antitumor activities of the novel multiple-kinase inhibitor Compounds 11, 68, and 82 against human MV411 human acute myelogenous leukemia (AML) xenograft model in female SCID mice.
as §2, with “compound.” for “NTW-3475.”

[2] = read-out: IC50 (nM) Auroro-A (h)

Flt1(h), sequence (P17948 27-1338): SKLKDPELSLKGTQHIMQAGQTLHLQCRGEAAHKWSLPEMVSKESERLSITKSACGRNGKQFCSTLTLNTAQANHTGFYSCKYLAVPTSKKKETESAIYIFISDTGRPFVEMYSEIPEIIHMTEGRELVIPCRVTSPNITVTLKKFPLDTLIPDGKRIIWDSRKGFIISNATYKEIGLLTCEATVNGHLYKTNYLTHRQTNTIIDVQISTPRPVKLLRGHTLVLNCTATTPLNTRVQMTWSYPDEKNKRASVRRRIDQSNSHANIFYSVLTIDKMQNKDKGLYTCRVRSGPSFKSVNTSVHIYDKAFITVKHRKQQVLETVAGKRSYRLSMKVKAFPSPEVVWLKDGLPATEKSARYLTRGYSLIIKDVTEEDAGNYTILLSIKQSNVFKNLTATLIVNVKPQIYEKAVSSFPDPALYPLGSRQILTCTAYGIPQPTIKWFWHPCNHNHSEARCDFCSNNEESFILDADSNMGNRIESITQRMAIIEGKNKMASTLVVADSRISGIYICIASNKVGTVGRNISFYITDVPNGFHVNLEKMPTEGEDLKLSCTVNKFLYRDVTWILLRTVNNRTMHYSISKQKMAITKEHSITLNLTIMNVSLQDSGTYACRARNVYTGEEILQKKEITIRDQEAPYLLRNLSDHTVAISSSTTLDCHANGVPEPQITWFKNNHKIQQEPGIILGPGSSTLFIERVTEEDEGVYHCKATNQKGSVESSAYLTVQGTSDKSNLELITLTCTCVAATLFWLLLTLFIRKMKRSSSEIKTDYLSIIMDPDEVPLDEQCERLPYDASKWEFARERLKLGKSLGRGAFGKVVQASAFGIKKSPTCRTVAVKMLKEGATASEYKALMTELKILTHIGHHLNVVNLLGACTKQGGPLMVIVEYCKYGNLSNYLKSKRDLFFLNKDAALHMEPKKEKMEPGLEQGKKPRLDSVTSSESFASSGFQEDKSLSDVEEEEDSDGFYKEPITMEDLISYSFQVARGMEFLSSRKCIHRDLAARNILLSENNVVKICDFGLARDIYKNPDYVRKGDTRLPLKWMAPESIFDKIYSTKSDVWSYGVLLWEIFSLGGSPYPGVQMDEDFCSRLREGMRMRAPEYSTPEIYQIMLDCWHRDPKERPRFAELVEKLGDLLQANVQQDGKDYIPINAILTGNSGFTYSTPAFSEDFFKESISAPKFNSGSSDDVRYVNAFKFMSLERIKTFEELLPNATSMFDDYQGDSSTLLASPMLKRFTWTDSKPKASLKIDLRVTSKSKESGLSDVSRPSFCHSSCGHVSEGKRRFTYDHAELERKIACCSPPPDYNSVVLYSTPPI
FGFR2(h), sequence (P21802 22-821): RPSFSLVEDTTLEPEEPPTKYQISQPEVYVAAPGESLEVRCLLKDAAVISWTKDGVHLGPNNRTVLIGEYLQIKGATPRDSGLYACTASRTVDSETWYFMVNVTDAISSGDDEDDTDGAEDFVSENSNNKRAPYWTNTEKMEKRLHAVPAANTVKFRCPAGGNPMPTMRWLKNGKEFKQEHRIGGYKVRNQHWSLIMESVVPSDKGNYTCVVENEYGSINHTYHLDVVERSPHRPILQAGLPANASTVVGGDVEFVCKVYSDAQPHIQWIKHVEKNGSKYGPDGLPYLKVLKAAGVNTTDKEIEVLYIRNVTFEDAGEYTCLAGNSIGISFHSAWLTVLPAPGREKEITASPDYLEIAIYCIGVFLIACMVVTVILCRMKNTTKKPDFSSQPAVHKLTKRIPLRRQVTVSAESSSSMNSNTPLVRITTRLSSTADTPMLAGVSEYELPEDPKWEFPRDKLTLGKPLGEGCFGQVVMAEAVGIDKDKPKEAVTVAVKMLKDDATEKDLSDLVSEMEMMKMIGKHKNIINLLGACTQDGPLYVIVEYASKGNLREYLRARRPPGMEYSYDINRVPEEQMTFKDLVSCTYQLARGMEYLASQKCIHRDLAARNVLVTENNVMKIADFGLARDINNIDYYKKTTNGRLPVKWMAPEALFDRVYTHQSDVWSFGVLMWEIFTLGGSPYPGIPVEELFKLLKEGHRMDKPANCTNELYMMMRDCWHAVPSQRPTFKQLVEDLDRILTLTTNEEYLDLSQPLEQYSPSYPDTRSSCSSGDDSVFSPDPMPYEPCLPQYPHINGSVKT
Ret(h), sequence (P07949 29-1114): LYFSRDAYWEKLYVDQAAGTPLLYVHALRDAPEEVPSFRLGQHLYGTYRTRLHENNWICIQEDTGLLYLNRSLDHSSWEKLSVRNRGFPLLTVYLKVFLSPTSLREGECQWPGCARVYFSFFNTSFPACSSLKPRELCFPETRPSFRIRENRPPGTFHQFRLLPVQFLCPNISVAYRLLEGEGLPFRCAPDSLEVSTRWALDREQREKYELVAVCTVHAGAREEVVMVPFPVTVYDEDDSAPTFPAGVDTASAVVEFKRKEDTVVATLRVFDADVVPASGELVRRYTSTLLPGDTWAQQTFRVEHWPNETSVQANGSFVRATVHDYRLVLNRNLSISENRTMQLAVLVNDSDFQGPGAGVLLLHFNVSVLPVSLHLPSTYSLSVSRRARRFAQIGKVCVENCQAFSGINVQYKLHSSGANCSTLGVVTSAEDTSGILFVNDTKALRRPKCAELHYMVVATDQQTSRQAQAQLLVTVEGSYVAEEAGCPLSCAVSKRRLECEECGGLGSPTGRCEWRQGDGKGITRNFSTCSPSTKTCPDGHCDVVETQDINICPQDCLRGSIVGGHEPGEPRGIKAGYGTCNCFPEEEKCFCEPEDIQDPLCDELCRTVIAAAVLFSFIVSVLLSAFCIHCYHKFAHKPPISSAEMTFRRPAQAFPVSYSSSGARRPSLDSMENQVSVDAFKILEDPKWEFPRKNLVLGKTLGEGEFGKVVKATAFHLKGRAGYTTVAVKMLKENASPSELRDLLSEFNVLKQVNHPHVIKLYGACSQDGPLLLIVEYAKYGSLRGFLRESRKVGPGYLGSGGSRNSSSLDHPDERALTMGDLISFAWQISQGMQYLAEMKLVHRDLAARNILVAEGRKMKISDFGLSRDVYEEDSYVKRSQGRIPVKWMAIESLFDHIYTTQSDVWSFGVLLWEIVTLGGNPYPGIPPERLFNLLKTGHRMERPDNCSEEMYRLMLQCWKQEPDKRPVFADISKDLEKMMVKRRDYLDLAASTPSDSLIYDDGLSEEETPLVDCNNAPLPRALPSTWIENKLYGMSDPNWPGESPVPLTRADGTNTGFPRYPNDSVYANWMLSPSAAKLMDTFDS
FGFR3(h), sequence (P22607 23-806): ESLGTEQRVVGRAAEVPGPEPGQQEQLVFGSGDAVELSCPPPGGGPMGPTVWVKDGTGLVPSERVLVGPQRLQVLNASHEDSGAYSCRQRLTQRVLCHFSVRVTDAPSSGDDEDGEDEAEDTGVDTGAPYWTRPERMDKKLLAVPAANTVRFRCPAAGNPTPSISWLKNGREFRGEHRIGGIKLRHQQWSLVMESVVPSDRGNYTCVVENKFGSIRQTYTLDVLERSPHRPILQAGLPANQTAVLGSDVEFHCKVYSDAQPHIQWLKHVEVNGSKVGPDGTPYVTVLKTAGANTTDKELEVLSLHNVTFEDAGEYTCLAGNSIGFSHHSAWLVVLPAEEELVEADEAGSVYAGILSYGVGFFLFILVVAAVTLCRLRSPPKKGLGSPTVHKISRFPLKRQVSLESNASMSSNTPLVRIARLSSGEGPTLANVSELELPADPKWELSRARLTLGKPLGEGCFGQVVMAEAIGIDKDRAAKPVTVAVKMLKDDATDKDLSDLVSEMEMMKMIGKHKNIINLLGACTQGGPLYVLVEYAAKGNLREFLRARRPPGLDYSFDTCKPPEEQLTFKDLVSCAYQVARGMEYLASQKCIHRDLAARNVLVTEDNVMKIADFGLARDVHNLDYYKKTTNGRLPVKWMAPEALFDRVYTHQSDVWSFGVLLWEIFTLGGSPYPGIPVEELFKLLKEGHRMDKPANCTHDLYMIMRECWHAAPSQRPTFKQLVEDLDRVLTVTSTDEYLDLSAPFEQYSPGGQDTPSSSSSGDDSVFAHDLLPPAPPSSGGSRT

Row | Structure (SMILES) | inhibition at 1 µM (Aurora-A(h)) [%] | IC50 (Aurora-A(h); [2]) [nM] | inhibition at 1 µM (Ret(h)) [%] | GI50 (AN3.CA) [nM] | GI50 (KU812) [nM] | GI50 (Kato III) [nM] | GI50 (RS4.11) [nM] | GI50 (TT) [nM] | anti-tumor effect [1] | body weight change [1] | further results
1 | Cc1cc2c(F)c(Oc3nc(Nc4cc(C5CC5)[nH]n4)cc(N4CCN(C)CC4)n3)ccc2[nH]1 [Compound 10] | 99 | 2 | 101 | 3 | < 0.025 | 0.07 | 3.22 | 8.3 |  |  | inhibition at 0.1 µM (Abl (M351T)(h)): 99%; inhibition at 0.1 µM (Aurora-A(h)): 98%; inhibition at 0.1 µM (Ret(h)): 102%; inhibition at 0.1 µM (FGFR2(h)): 99%; inhibition at 0.1 µM (FGFR3(h)): 100%; inhibition at 0.1 µM (Flt1(h)): 100%
2 | Cc1cc2c(F)c(Oc3nc(Nc4cc(C5CC5)[nH]n4)cc(N4CCNCC4)n3)ccc2[nH]1 [Compound 11, N-(5-cyclopropyl-1H-pyrazol-3-yl)-2-((4-fluoro-2-methyl-1H-indol-5-yl)oxy)-6-(piperazin-1-yl)pyrimidin-4-amine] | 100 | < 0.1 | 101 |  | 1.61 |  | 3.16 |  | strong anti-tumor effect | minimal body weight lost | inhibition at 0.1 µM (Abl (M351T)(h)): 102%; inhibition at 0.1 µM (Aurora-A(h)): 99%; inhibition at 0.1 µM (Ret(h)): 100%; inhibition at 0.1 µM (FGFR2(h)): 99%; inhibition at 0.1 µM (FGFR3(h)): 101%; inhibition at 0.1 µM (Flt1(h)): 100%
3 | C/C=C/c1cc(Nc2cc(N3CCN(C)CC3)nc(Oc3ccc4[nH]c(C)cc4c3F)n2)n[nH]1 [Compound 53] | 97 |  | 98 | 0.78 | 0.24 | 0.06 | 11 | 3.5 |  |  | IC50 (Abl (M351T)(h); Abl(M351T)): 0.7 nM; IC50 (Aurora-A(h); Aurora-A, read-out: IC50): 4 nM; IC50 (Ret(h); Ret, read-out: IC50): 2 nM; IC50 (FGFR2(h); FGFR2): 2 nM; IC50 (FGFR3(h); FGFR3): 1 nM; IC50 (Flt1(h); VEGFR1): 3 nM
4 | C/C=C/c1cc(Nc2cc(N3CCNCC3)nc(Oc3ccc4[nH]c(C)cc4c3F)n2)n[nH]1 [Compound 68] | 99 | 10 | 99 | 0.88 |  |  |  | 1.9 | strong anti-tumor effect | minimal body weight lost | 
5 | Cc1cc2c(F)c(Oc3nc(Nc4cc(C5CC5)[nH]n4)cc(N4CCNCC4)n3)cc(F)c2[nH]1 [Compound 82] | 100 | 4 | 100 |  | 0.75 |  | 2.65 |  | strong anti-tumor effect | minimal body weight lost | IC50 (Ret(h); read-out: IC50 (nM) Ret (h)): 1 nM
6 | C/C=C/c1cc(Nc2cc(N3CCN(CCO)CC3)nc(Oc3cc(F)c4[nH]c(C)cc4c3F)n2)n[nH]1 [Compound 88] | 100 |  | 99 | 0.31 | 0.71 | 0.06 | 3.71 | 3.4 |  |  | 
7 | C/C=C/c1cc(Nc2cc(N3CCN(C)CC3)nc(Oc3cc(F)c4[nH]c(C)cc4c3F)n2)n[nH]1 [NTW-3456] |  |  |  |  |  |  |  |  | significant anti-tumor activity |  | 
